Common to all, as to assay type: in vivo, mouse
In series [1] the test system is Ndufs4(KO) mice. The series is described as follows: Isoflurane induced hyperlactemia assay. The following applies: 0.4% isoflurane for 30 min, P50, 300 mg/kg/d. The procedure:
Isoflurane induced hyperlactemia assays. All of these experiments were performed at P50. Mice were subject to normal daily monitoring (see survival studies) up until P50. At P50, baseline blood glucose, lactate, and […] (β-HB) levels were measured using point-of-care meters using the tail-prick method, as described. Mice were then immediately exposed to 0.4% isoflurane or carrier gas only (100% oxygen) for 30 min. At the 30 minutes, blood glucose, lactate, and β-HB were measured again.

The subject of series [2] is Ndufs4(KO) mice. The series is described as follows: Respiratory measurements by whole-body plethysmography. The following applies: 300 mg/kg/day. The procedure: Respiratory measurements. Breathing parameters were recorded from alert, unrestrained, adult (P60) mice using whole-body plethysmography. Paired 300 ml recording and reference chambers were continuously ventilated (150 ml/min) with either normal air (79% nitrogen and 21% oxygen) or a hypercapnic gas mixture (74% nitrogen, 21% oxygen, and 5% CO2). Pressure differences between the recording and reference chambers were measured (Buxco Respiratory Products) and digitized (Axon Instruments) to visualize respiratory pattern, and simultaneous video recordings were performed to differentiate resting breathing activity from exploratory sniffing and grooming behaviors. Untreated and treated (pexidartinib 300 mg/kg/day) control and Ndufs4(KO) mice were allowed to acclimate to the chambers for 30-40 min prior to acquisition of 35 min of respiratory activity in normal air. The respiratory response to hypercapnia was then tested by ventilating the chambers with hypercapnic gas for 15 min. Respiratory frequency, and breath-to-breath irregularity scores (irreg.score=ABS((N-(N−1))/N)) of frequency and amplitude (peak inspiratory airflow) were quantified during periods of resting breathing (pClamp10 software). During hypercapnic challenges, only data during the final 5 min of the 15 min period were analyzed. […]

Series [3] has as its system CNS lesions in Ndufs4(KO) mice. The series is described as follows: Brain immunological staining: brainstem and cerebellar CNS lesions. The following applies: 300 mg/kg/day. Here is the method: Brain immunological staining and microscopy. Brains were fixed for 48 hours in 10% formalin at 4° C. Following fixation, brains were moved to a cryoprotectant solution (30% sucrose, 1% DMSO, 100 μM glycine, 1×PBS, 0.45 μm filtered, pH 7.5), and stored for over 48 hours, until the fixed tissues sank to the bottom. Tissues were then placed in OCT media (Tissue-Tek OCT compound, Sakura 0004348-01), frozen in cryoblock holders on dry ice, and stored at −80° C. until sectioned for staining. Cryoblocks were cut at 50 μm thickness using a Leica CM30505 cryostat set at −40° C. Slices were moved to 1×PBS and stored at 4° C. until used for staining. Prior to staining, slices were mounted on slides and briefly dried to adhere.
Antibody staining was performed as follows: slides were first incubated in an antigen retrieval and permeabilization buffer (0.05% Triton X-100, 50 μM digitonin, 10 mM Tris-HCl, 1 mM EDTA, pH 9.0) at 60° C. overnight in a white-light LED illuminated box (to promote photobleaching of tissue autofluorescence). To reduce formaldehyde induced background fluorescence, slides were treated with sodium borohydride in ice cold PBS, added at 1 mg/mL immediately before incubation, on ice for 30 min, then moved to 10 mM glycine 1×PBS, pH 7.4, for 5 min at room temperature. Lipid background fluorescence was then blocked by incubating slides in 0.2 μm filtered Sudan Black B solution (5 mg/mL in 70% ethanol) overnight at room temperature. Slides were then rinsed twice, 5 min each, in 1×PBS. Excess fluid was wiped from the slide, and the tissue was circled using Liquid Blocker PAP pen (Fisher Scientific, NC9827128) to hold staining solutions. Slides were blocked for 15 min at room temperature in 1×PBS with 10% rabbit serum (Gibco, 16120-099) then stained overnight at 4° C. in a mixture of rabbit anti-IBA1-fluorochrome 635 conjugated (WAKO 013-26471) at 1:300, mouse anti-GFAP, Alexa555 conjugated (Cell Signaling, 3656S) at 1:300, and DAPI (Sigma, D9542) at 1 μg/mL. […]

In series [4] the test system is control and Ndufs4(KO) mice. The series is described as follows: Plasma ALT and AST enzymatic activity assays. The following applies: 300 mg/kg/day, both genotypes. The procedure:
Plasma ALT and AST measures. Small volumes (5-10 μL) of blood were collected using tail-prick and heparinized microhematocrit tubes (Fisher Scientific cat. #22-362566), placed on ice in 15 mL sample tubes, then moved (by pipette) into 1.5 mL microcentrifuge tubes and stored at −80° C. until used for ALT and AST enzymatic assays. ALT and AST were quantified using colorimetric enzymatic activity assay kits (Sigma, cat. #'s MAK052 and MAK055, respectively) according to manufacturer recommendations. Absorbance was measured on a NanoDrop 1000 (ThermoScientific).

For series [5], the system named is control and Ndufs4(KO) animals. The series is described as follows: Observation of coat color under treatment. The following applies: higher doses (of 100, 200, 300 mg/kg/day) in chow. The procedure:
To directly test this model, Ndufs4(KO) and control animals were treated with 100, 200, or 300 mg/kg/day pexidartinib in normal mouse chow (dosing is approximated based on food consumption, see Experimental Methods in Example 1).

Series [6] deals with Ndufs4(KO) mice. As to the kind of experiment: Longitudinal assessment of neurological disease symptoms (clasping, ataxia, circling). The procedure: Longitudinal assessments of neurological disease symptoms. Clasping, ataxia, and circling were assessed by visual scoring, as previously described. As disease progresses in the Ndufs4(KO) mice animals display intermittent/transient improvement of symptoms. […] For observational assessments, lab-wide quality control discussions occurred frequently to ensure consistency between technicians/researchers. Technicians contributed equally to each treatment group to minimize any potential bias between individuals.

“Also recorded” adds a separate entry of the source.

Turning to `FC(F)(F)c1ccc(CNc2ccc(Cc3c[nH]c4ncc(Cl)cc34)cn2)cn1` [pexidartinib, 5-[(5-chloro-1H-pyrrolo[2,3-b]pyridin-3-yl)methyl]-N-[[6-(trifluoromethyl)pyridin-3-yl]methyl]pyridin-2-amine], the “blood lactate spike after isoflurane exposure” value in the series with Ndufs4(KO) mice [1] is recorded as “fully suppressed this lactate spike”. The “respiratory dysfunction in normal air” value with Ndufs4(KO) mice [2] (P60) is reported as “completely rescued”. Besides, the “respiratory response to increased CO2” value in the series with Ndufs4(KO) mice [2] (P60, 5% CO2) was “completely rescued”. The “gliosis (microgliosis and astrocytosis) at CNS lesion sites” value in series [3] was “completely prevented”. Moreover, the “brainstem CNS lesions” value in series [3] (immunohistochemistry) is recorded as “complete (as detected by immunohistochemistry) prevention”. For the same molecule, the “cerebellar CNS lesions” value in series [3] (immunohistochemistry) is “complete (as detected by immunohistochemistry) prevention”. The ALT level entry in series [4] is given as “significantly elevated”. Besides, the AST level entry in series [4] is on record as “significantly elevated”. Also, the coat/fur color entry in series [5] is reported as “turns fur white; also recorded: change in mouse coat color”; in series [5] (listed as Pexidartinib), “caused animal fur to whiten”. Also, the “clasping, ataxia, circling endpoints compared with mTOR inhibition” value in the series with Ndufs4(KO) mice [6] (200 mg/kg/day) is on record as “roughly matched mTOR inhibition”; in the series with Ndufs4(KO) mice [6] (300 mg/kg/day) it was “performed substantially better”. Moreover, the “neurologic disease onset and severity as measured by clasping” value with Ndufs4(KO) mice [6] (100, 200, and 300 mg/kg/day) was “affect neurologic disease onset and severity”. Further, in the series with Ndufs4(KO) mice [6] (Ndufs4(KO) mice vs untreated), the “onset of symptoms: forelimb clasping, ataxia, and circling” value is “dose-dependently delayed the onset and reduced overall incidence”.

For the origin of these results see patent US20230321063A1, “COMPOSITIONS AND METHODS TO REDUCE NEUROINFLAMMATION” (Seattle Children's Hospital d/b/a Seattle Children's …, priority 2020, published 2023).
